Measured values reported in PMC7064328 (Environmental Health Perspectives, 2020).
Like-named read-outs stand apart in the source and are kept apart here.

Key:
placenta = assay: Placental thyroid hormone quantification (HPLC-MS/MS); type: in vivo, mouse (CD-1); conditions: E17.5
Procedure: Thyroid hormones (T3, triiodothyronine; T4, thyroxine; rT3, reverse triiodothyronine) in placenta were analyzed according to the methods described in Leonetti et al. ([2016]). Briefly, ∼300mg ( 207–526mg ) of two to three pooled placental tissues of same-sex embryos was homogenized and digested for 16 h overnight in PRONASE® Protease (Streptomyces griseus) solution (EMD Millipore Corp.). Each pooled sample of two to three placentas was considered as one biological replicate and included placentas from the same litter when possible. Three biological replicates were used for each treatment group and each sex. Samples were spiked with an antioxidant solution (containing 37.5mg/mL each of citric acid, ascorbic acid, and dithiothreitol) and C13 isotopically labeled internal standards (T4, T3, and rT3), and cold acetone was added to stop the digestion reaction. Samples were vortex mixed and centrifuged three times for 2 min at 10,000 relative centrifugal force (rcf), and the supernatants were collected and combined. Sample pH was adjusted with 6M hydrochloric acid to pH<2 . A liquid–liquid extraction with cyclopentane was performed and the cyclopentane layer discarded; briefly, 1mL of cyclopentane was added to the supernatant and vortexed before the sample was centrifuged for 3 min at 3,000 rcf and the cyclopentane layer discarded, and this was repeated three times. A liquid–liquid extraction with ethyl acetate was performed; briefly, 3mL of ethyl acetate was added to the extract and vortexed before being shaken on a plate shaker for 30 min and centrifuged for 3 min at 3,000 rcf, and the ethyl acetate layer collected; this was repeated three times. Ethyl acetate extracts were dried down to 50μL under a gentle nitrogen stream and resuspended in 1mL of 0.01M hydrochloric acid in 10% methanol. Samples were purified by solid-phase extraction using SampliQ Optimized Polymer Technology (OPT) cartridges ( 3mL , 50mg; Agilent Technologies). Final extracts in 400μL of 1:1 methanol:water were filtered using Whatman® Mini-UniPrep® Syringeless Filters [Polytetrafluoroethylene (PTFE), 0.2μm; GE Healthcare]. Extracts were analyzed on an Agilent high-performance liquid chromatography (HPLC) 1260 with a Synergi™ 50mm×2mm Polar-RP column ( 2.5μm; Phenomenex) coupled to an Agilent model 6460 tandem mass spectrometer with electrospray ionization (HPLC-MS/MS-ESI). Mobile phases consisted of 10 mM formic acid in methanol and 10 mM formic acid in water. Laboratory processing blanks were extracted alongside the placental tissues to monitor background levels. No TH were detected in the lab blanks. Method detection limits (MDLs) were calculated using a signal-to-noise value of 3 for each analyte (T3, T4, and rT3). Values were normalized to the wet weight of placenta extracted for a final value of nanogram hormone/gram placenta. Values below the MDL (T4, 0.84 ng/g; T3, 0.42 ng/g; rT3, 0.67 ng/g ) were imputed using the calculation MDL×0.5 , and values lacking a quantifiable peak on mass spectrometry were excluded from the analysis.
TH concentrations in the placenta were quantified, and the ratios of T3:T4 and rT3:T4 in E17.5 placentas were assessed to evaluate potential disruption of peripheral TH control (e.g., impacts on thyroid deiodinase activity). Each end point was analyzed for sex×treatment interaction or for an overall effect of sex. Placenta TH were analyzed by analysis of variance using lme4 ([Bates et al. 2014]). Simultaneous tests for general linear hypotheses were corrected for multiple comparisons of means using Tukey contrasts in the package multcomp ([Hothorn et al. 2009]). Placental TH and their ratios were initially analyzed with embryo sex as an interaction term in the model, with the dose group as the predictor variable. Inclusion of a sex interaction or sex covariate in the final model was examined in a stepwise fashion. Internal dosimetry data were analyzed by analysis of variance. […]

humans = tested on: humans; set-up: method as in Johnson et al. 2014; conditions: meta-analysis; ref Johnson et al. 2014; cited from earlier work
CD-1 mice = conditions: cited from earlier work
[1] = set-up: method as in Gannon et al. 2016; conditions: mice; ref Gannon et al. 2016; cited from earlier work
rats = conditions: ref Conley et al. 2019, cited from earlier work
[2] = set-up: method as in Gannon et al. 2016; conditions: rats; ref Gannon et al. 2016; cited from earlier work

## O=C(O)C(F)(F)C(F)(F)C(F)(F)C(F)(F)C(F)(F)C(F)(F)C(F)(F)F [PFOA, Perfluorooctanoic acid]
placenta; 1 mg/kg/d
  Placental T3: 0.2±0 [6 (0, 6)] ng/g
  Placental T3:T4 ratio: 0.09±0.03 [6]
  Placental T4: 2.5±1.0 [6 (6, 0)] ng/g
  Placental rT3: 0.7±0.4 [6 (3, 3)] ng/g
  Placental rT3:T4 ratio: 0.30±0.21 [6]
placenta; 5 mg/kg/d
  Placental T3: 0.2±0 [4 (0, 4)] ng/g
  Placental T3:T4 ratio: 0.07±0.02 [4]
  Placental T4: 2.8±1.3 [6 (6, 0)] ng/g
  Placental rT3: 1.4±0.7 [5 (5, 0)] ng/g
  Placental rT3:T4 ratio: 0.45±0.05 [5]
placenta; female, 1 mg/kg/d
  Placental T3: 0.2 ± 0 ng/g
  Placental T3:T4 ratio: 0.104 ± 0.02
  Placental T4: 2.0 ± 0.4 ng/g
  Placental rT3:T4 ratio: 0.401 ± 0.22
placenta; female, 5 mg/kg/d
  Placental T3: 0.2 ± 0 ng/g
  Placental T3:T4 ratio: 0.065 ± 0.02
  Placental rT3: 1.6 ± 1.0 ng/g
  Placental rT3:T4 ratio: 0.441 ± 0.05
placenta; male, 1 mg/kg/d
  Placental T3: 0.2 ± 0 ng/g
  Placental T3:T4 ratio: 0.071 ± 0.02
  Placental rT3: 0.5 ± 0.4 ng/g
  Placental rT3:T4 ratio: 0.196 ± 0.17
placenta; male, 5 mg/kg/d
  Placental T3: 0.2 ng/g
  Placental T3:T4 ratio: 0.083
  Placental rT3: 1.2 ± 0.1 ng/g
  Placental rT3:T4 ratio: 0.454 ± 0.07
humans
  Shift in birth weight per 1-ng/mL increase in serum PFOA: -18.9 g

## N.O=C(O)C(F)(OC(F)(F)C(F)(F)C(F)(F)F)C(F)(F)F (stereo not shown) [GenX, ammonium 2,3,3,3-tetrafluoro-2-(heptafluoropropoxy)propanoate]
CD-1 mice; 5 mg/kg/d on lactation day 21, ref DuPont-18,405-1,037
  Dam plasma concentration: 36.4 µg/mL
CD-1 mice; microscopic changes in maternal liver, ref DuPont-18,405-1,037 (Edwards 2010b)
  NOAEL for reproductive toxicity and maternal systemic toxicity: 5 mg/kg/day
placenta; 2 mg/kg/d
  Placental T3: 0.3±0.2 [5 (0, 5)] ng/g
  Placental T4: 5.3±1.7 [6 (6, 0)] ng/g
  Placental rT3: 1.7±0.8 [6 (6, 0)] ng/g
placenta; 10 mg/kg/d
  Placental T3: 0.2±0 [6 (0, 6)] ng/g
  Placental T4: 6.1±1.1 [6 (6, 0)] ng/g
  Placental rT3: 1.6±0.3 [6 (6, 0)] ng/g
placenta; female, 2 mg/kg/d
  Placental T3: 0.3 ± 0.2 ng/g
  Placental T4: 5.9 ± 2.3 ng/g
  Placental rT3: 2.3 ± 0.6 ng/g
placenta; female, 10 mg/kg/d
  Placental T3: 0.2 ± 0 ng/g
  Placental T4: 6.5 ± 1.4 ng/g
  Placental rT3: 1.9 ± 0.1 ng/g
placenta; male, 2 mg/kg/d
  Placental T3: 0.2 ± 0 ng/g
  Placental T4: 4.7 ± 1.1 ng/g
  Placental rT3: 1.0 ± 0.2 ng/g
placenta; male, 10 mg/kg/d
  Placental T3: 0.2 ± 0 ng/g
  Placental T4: 5.8 ± 0.7 ng/g
  Placental rT3: 1.3 ± 0.3 ng/g
[1]
  Elimination half-life: ~20 h
rats; gestational exposure
  LOAEL, disrupted maternal lipids: 125 mg/kg/day
  LOAEL, disrupted maternal thyroid hormone: 30 mg/kg/day
rats
  LOAEL, lower BWs in gestationally exposed female offspring: 125 mg/kg/day
[2]
  Elimination half-life: ~5 h
